# Experimental data reported in patent publication US20190374478A1, “Ultrastable Gold Nanoparticles For Drug Delivery Applications And Synthesis Thereof” (Université Laval, priority 2016, published 2019).
# What was measured:
# [1] = Encapsulation efficiency (indirect assay, magnetic bead removal, UV-visible/HPLC of supernatant); assay type: physicochemical; settings: 69 nM AuNPs
# Method: The AuNPs and the drug are brought into contact in a screw-cap 2 mL microtube, with magnetic bar stirring, at 37° C. for a time determined according to the kinetics of encapsulation obtained by UV-visible spectroscopy.
# In the case of travoprost, an encapsulation time of five days was chosen according to the encapsulation kinetics determined by UV spectroscopy at 278 nm (FIG. 9).
# The method used to determine the encapsulation efficiency rely on an indirect assay by evaluating what has not been encapsulated. Once the encapsulation is complete, the entire mixture is brought into contact with magnetic beads to allow the nanoparticles that contain the encapsulated drug to be removed from the medium. The residual supernatant is then analyzed by UV-visible spectroscopy and high-performance liquid chromatography (HPLC).
# To do so, a solution of 0.0005% phosphate buffered saline Tween™ (PBS-T) was prepared. The magnetic beads were then cleaned and 100 μL of magnetic beads were placed in a 1.5 mL microtube. The beads were then magnetized, and the supernatant was removed.
# 1 mL of the prepared PBS-T was added to the beads, the beads were then suspended with a vigorous vortex for 30 seconds. The beads were then magnetized, and the supernatant was removed. […]
# The final supernatant was analyzed by UV-Visible spectroscopy (λ=200-700 nm) and by high-performance liquid chromatography (HPLC).
# [2] = tested on: intraocular pressure in glaucomatous mice; assay: Intraocular pressure in microbead-induced hypertensive glaucoma model; assay type: in vivo, C57BL/6J mice
# Method: An in vivo glaucoma model involving the injection of exogenous microbeads into the anterior chamber was used (FIG. 17A). The injected beads partially block the trabecular meshwork resulting in intraocular pressure (IOP) elevation while causing no damage to the site of drug action. Two-month-old C57BL/6J mice were used. The IOP was followed with a tonometer (Tonolab®) specially designed for rodents. Animals were injected with 5 μL of microbeads with a dimeter of about 10 μm (7.2×10^6 microbeads/mL) in the anterior chamber of the left eye. For the encapsulation experiments, travoprost was solubilized in water/ethanol (50/50) in the presence of AuNPs. The solution was heated (65° C.) in order to evaporate the ethanol and to induce conformational changes of PEG molecules leading to a better encapsulation. The solution was thus completed with water until the initial volume. Hypertensive glaucoma was induced in adult C57BL/6 mice by injecting 5 μL of polystyrene microbeads (35,000 microbeads) with an average diameter of 10 μm in the anterior chamber of the eye. The dispersion of the microbeads at the level of the iridocorneal angle blocks the passage of the aqueous humor towards the trabecular meshwork (FIG. 17A). Mechanically, the decrease in drainage of the aqueous humor produces an increase in intraocular pressure which is measured with a tonometer of the Tonolab brand. […]
smiles,measurement,setting,value
CC(C)OC(=O)CCC/C=C\C[C@@H]1[C@@H](/C=C/[C@@H](O)COc2cccc(C(F)(F)F)c2)[C@H](O)C[C@@H]1O [travoprost],Percentage of encapsulated travoprost,[1]; initial 80 μM travoprost,about 68.52%±4.032
same,Percentage of encapsulated travoprost,[1]; initial 120 μM travoprost,about 67.98%±3.877
same,Level of intraocular pressure after 24 hours,[2]; 24 hours after single topical application,"returned to a high level, similar to that before treatment"
same,Effect on intraocular pressure,"[2]; single topical application, glaucomatous mice",significantly but transiently decreased
